The source made the active and inactive calls. The calls are words filed in the database; no cut-off is given here.
Assays:
MCF7 [1] = assay: Down modulation of sortilin expression in ERalpha-positive human MCF7 cells incubated for 48 hrs by Western blot analysis; format: ADME, cell-based; details: mcf7, 48 h
[2] = Kinetic solubility of compound at pH 7.4 PBS buffer incubated for 30 mins by nephelometry; format: physicochemical; details: for Kinetic_solubility: buffer, pH 7.4, 0.5 h; for solubility kinetic at 0.5 h: PBS buffer, pH 7.4, read-out: Kinetic_solubility
MCF7 [3] = assay: Inhibition of mammosphere-forming capacity in ER-positive human MCF7 cells assessed as inhibition of progranulin-induced mammosphere formation at 1 uM measured after 48 hrs by microscopy; format: functional, cell-based
MCF7 [4] = assay: Effect on mammosphere-forming capacity in ER-positive human MCF7 cells measured after 48 hrs by microscopy; format: functional, cell-based
MDA-MB-231 [5] = assay: Down modulation of sortilin expression in ERalpha-negative human MDA-MB-231 cells incubated for 48 hrs by Western blot analysis; format: ADME, cell-based; details: mda-mb-231, 48 h
[6] = Therapeutic index, ratio of CC50 for cytotoxicity against human HEK293T cells to ratio of IC50 for Down modulation of sortilin expression in HEK293T cells tranfected with GFP-tagged sortilin incubated for 24 hrs by flow cytometric analysis; format: toxicity, cell-based; details: read-out: TI
MDA-MB-231 [7] = assay: Effect on mammosphere-forming capacity in ER-negative human MDA-MB-231 cells measured after 48 hrs by microscopy; format: functional, cell-based
MDA-MB-231 [8] = assay: Cytotoxicity against human MDA-MB-231 cells assessed as reduction in cell viability after 48 hrs by alamar blue assay; format: functional, cell-based
HEK-293T [9] = assay: (§1) Cytotoxicity against human HEK293T cells assessed as reduction in cell viability after 72 hrs by alamar blue assay; format: cell-based; details: hek-293t, 72 h
MDA-MB-231 [10] = assay: Inhibition of mammosphere-forming capacity in ER-negative human MDA-MB-231 cells assessed inhibition of as progranulin-induced mammosphere formation at 1 uM measured after 48 hrs by microscopy; format: functional, cell-based
HEK-293T [11] = assay: Down modulation of sortilin expression in HEK293T cells tranfected with GFP-tagged sortilin incubated for 24 hrs by flow cytometric analysis; format: functional, cell-based; details: Homo sapiens
MCF7 [12] = assay: Cytotoxicity against human MCF7 cells assessed as reduction in cell viability after 48 hrs by alamar blue assay; format: functional, cell-based
MDA-MB-231 [13] = assay: Inhibition of mammosphere-forming capacity in ER-negative human MDA-MB-231 cells assessed as inhibition of progranulin-induced mammosphere formation at 4 uM measured after 48 hrs by microscopy; format: functional, cell-based
MCF7 [14] = assay: Inhibition of mammosphere-forming capacity in ER-positive human MCF7 cells assessed as inhibition of progranulin-induced mammosphere formation at 4 uM measured after 48 hrs by microscopy; format: functional, cell-based
[15] = as §1; format: cell-based, HEK-293T; details: HEK293T cells

| Activity (MCF7 [1]) | Kinetic_solubility [2] [µM] | Activity (MDA-MB-231 [5]) | solubility kinetic at 0.5 h [2] [µM] | SMILES | inhibition (MCF7 [3]) | Activity (MCF7 [4]) | selectivity ratio at 24 h [6] | Activity (MDA-MB-231 [7]) | Activity (MDA-MB-231 [8]) | CC50 (HEK-293T [9]) [nM] | inhibition (MDA-MB-231 [10]) | IC50 (HEK-293T [11]) [nM] | Activity (MCF7 [12]) | inhibition (MDA-MB-231 [13]) | inhibition (MCF7 [14]) | CC50 at 72 h [15] [nM] |
| --- | --- | --- | --- | --- | --- | --- | --- | --- | --- | --- | --- | --- | --- | --- | --- | --- |
| Dose-Dependent Effect | 56 | Active | – | C=C1CN(S(=O)(=O)c2ccc(OC)cc2)CCCN(CC2CCCCC2)CCCN(S(=O)(=O)c2ccc(N(C)C)cc2)C1.Cl | Active | inactive | 10 | inactive | inactive | 1000 | Active | 100 | inactive | – | – | – |
| – | 57 | – | – | C=C1CN(S(=O)(=O)c2ccc(C)cc2)CCCN(CC2CCCCC2)CCCN(S(=O)(=O)c2ccc(OC)cc2)C1.Cl | – | inactive | 2.8 | inactive | – | 1400 | – | 500 | – | – | – | – |
| – | 59 | – | – | C=C1CN(S(=O)(=O)c2ccc(C)cc2)CCCN(CC2CCCCC2)CCCN(S(=O)(=O)c2ccc(OCCO)cc2)C1.Cl | – | inactive | 1.7 | inactive | – | 15000 | Active | 9000 | – | Active | Active | – |
| Dose-Dependent Effect | 60 | Active | – | C=C1CN(S(=O)(=O)c2ccc(N(C)C)cc2)CCCN(CC2CCCCC2)CCCN(S(=O)(=O)c2cccc3ccccc23)C1.Cl | Active | inactive | > 26 | inactive | inactive | – | Active | 1900 | inactive | – | – | > 50000 |

The remaining lines, values behind:

| SMILES | Activity (MCF7 [1]) | Kinetic_solubility [2] [µM] | Activity (MDA-MB-231 [5]) | solubility kinetic at 0.5 h [2] [µM] | inhibition (MCF7 [3]) | Activity (MCF7 [4]) | selectivity ratio at 24 h [6] | Activity (MDA-MB-231 [7]) | Activity (MDA-MB-231 [8]) | CC50 (HEK-293T [9]) [nM] | inhibition (MDA-MB-231 [10]) | IC50 (HEK-293T [11]) [nM] | Activity (MCF7 [12]) | inhibition (MDA-MB-231 [13]) | inhibition (MCF7 [14]) | CC50 at 72 h [15] [nM] |
| --- | --- | --- | --- | --- | --- | --- | --- | --- | --- | --- | --- | --- | --- | --- | --- | --- |
| C=C1CN(S(=O)(=O)c2ccc(C)cc2)CCCN(Cc2ccccc2)CCCN(S(=O)(=O)c2ccc(C)cc2)C1.Cl [CYCLOTRIAZADISULFONAMIDE HYDROCHLORIDE] | – | – | – | 43 | – | inactive | > 23 | inactive | – | > 50000 | – | 2200 | – | – | – | – |
| C=C1CN(S(=O)(=O)c2ccc(C)cc2)CCc2cc(-c3ccccc3)cc(n2)CCN(S(=O)(=O)c2ccc(C)cc2)C1.Cl | – | – | – | 61 | – | inactive | > 12.5 | inactive | – | > 50000 | Active | 4000 | – | Active | Active | – |
| C=C1CN(S(=O)(=O)c2ccc(C)cc2)CCCN(CCc2ccccc2)CCCN(S(=O)(=O)c2ccc(C)cc2)C1.Cl | Dose-Dependent Effect | 55 | Active | – | Active | inactive | > 50 | inactive | inactive | – | Active | 1000 | inactive | – | – | 50000 |

— ChEMBL document CHEMBL5029159, “Reduction of Progranulin-Induced Breast Cancer Stem Cell Propagation by Sortilin-Targeting Cyclotriazadisulfonamide (CADA) Compounds” (J Med Chem, 2021)
